Reference: patent US9902733B2, “Furopyridines as inhibitors of protein kinases” (MASARYKOVA UNIVERZITA, priority 2014, dated 2018)
Read-outs that look alike come from different tables or passages of the source.

Tests used:
Type in all cases: biochemical
[1] = molecular target: T1, CLK2 (h) (Homo sapiens, UniProt P49760); assay: CLK2 KinaseProfiler radiometric protein kinase assay
T1 construct: purchased Merck Millipore (KinaseProfiler service)
Protocol: (§1) In vitro essays were performed by the company Merck Millipore in their KinaseProfiler radiometric protein kinase assay as paid commercial service. The compounds IC50 values for inhibition of individual protein kinases were determined. Dose-response curves were plotted from inhibition data generated, each in duplicate, from 10 point serial dilutions of inhibitory compounds. Concentration of compound was plotted against % kinase activity. To generate IC50 values, the dose-response curves were fitted to a standard sigmoidal curve and IC50 values were derived by standard nonlinear regression analysis.
(§2) All tested compounds were prepared in 100% DMSO to final assay concentrations either 0.5 mM (for the concentration row A, see below) or 0.05 mM (for the concentration row B). This working stock of the compound was added to the assay well as the first component in the reaction, followed by the remaining components as detailed below. The stock solution was added to the individual assay wells in such amounts that the concentrations of the compound were either in the row A (0.001 μM, 0.003 μM, 0.01 μM, 0.03 μM, 0.1 μM, 0.3 μM, 1.0 μM, 3.0 μM, and 10.0 μM) or in the row B (0.0001 μM, 0.0003 μM, 0.001 μM, 0.003 μM, 0.01 μM, 0.03 μM, 0.1 μM, 0.3 μM, and 1.0 μM). There was no pre-incubation step between the compound and the kinase prior to initiation of the reaction.
(§3) The positive control wells contained all components of the reaction, except the compound of interest; however, DMSO (at a final concentration of 2%) was included in these wells to control for solvent effects. The blank wells contained all components of the reaction, with staurosporine as a reference inhibitor replacing the compound of interest. This abolished kinase activity and established the base-line (0% kinase activity remaining).
CLK2 (h) was diluted in the buffer (20 mM MOPS (3-(N-morpholino)propanesulfonic acid), 1 mM EDTA (ethylendiaminotetraacetic acid), 0.01% Brij-35 (detergent), 5% Glycerol, 0.1% β-mercaptoethanol, 1 mg/mL BSAs) to the concentration of 1.01 mg/mL prior to addition to the reaction mix.
(§4) The above stock solution of CLK2(h) was added to a mixture containing 8 mM MOPS pH 7.0, 0.2 mM EDTA, and 20 μM […](p) EDEEE in such amount that the resulting concentration of CLK2(h) was 2.1 nM. This mixture was added to the stock solution of the tested compound. The reaction was initiated by the addition of the MgATP mix in such amount that the resulting concentration of Mg acetate in the reaction mixture was 10 mM and [γ-^33P-ATP] (specific activity approx. 500 cpm/pmol) was 15 μM. After incubation for 40 minutes at room temperature, the reaction was stopped by the addition of 3% phosphoric acid solution. 10 μL of the reaction was then spotted onto a P30 filtermat and washed three times for 5 minutes in 75 mM phosphoric acid and once in methanol prior to drying and scintillation counting.

[2] = molecular target: T2, HIPK1(h) (Homo sapiens, UniProt Q86Z02); assay: HIPK1 KinaseProfiler radiometric protein kinase assay; conditions: 45 μM ATP, 40 minutes at room temperature
T2 construct: purchased Merck Millipore (KinaseProfiler service)
Protocol: as §1, §2, §3
HIPK1(h) was diluted in the buffer (20 mM MOPS, 1 mM EDTA, 0.01% Brij-35, 5% Glycerol, 0.1% β-mercaptoethanol, 1 mg/mL BSAs) to the concentration of 1.01 mg/mL prior to addition to the reaction mix.
(§5) The above stock solution of HIPK1(h) was added to a mixture containing 8 mM MOPS pH 7.0, 0.2 mM EDTA, and 0.33 mg/mL myelin basic protein in such amount that the resulting concentration of HIPK1(h) was 4.7 nM. This mixture was added to the stock solution of the tested compound. The reaction was initiated by the addition of the MgATP mix in such amount that the resulting concentration of Mg acetate in the reaction mixture was 10 mM and [γ-^33P-ATP] (specific activity approx. 500 cpm/pmol) was 45 μM. After incubation for 40 minutes at room temperature, the reaction was stopped by the addition of 3% phosphoric acid solution. 10 μL of the reaction was then spotted onto a P30 filtermat and washed three times for 5 minutes in 75 mM phosphoric acid and once in methanol prior to drying and scintillation counting.

[3] = molecular target: T3, DYRK2 (Homo sapiens, UniProt Q92630); assay: DYRK2 KinaseProfiler radiometric protein kinase assay
T3 construct: purchased Merck Millipore (KinaseProfiler service)
T3 sequence (Q92630 1-601): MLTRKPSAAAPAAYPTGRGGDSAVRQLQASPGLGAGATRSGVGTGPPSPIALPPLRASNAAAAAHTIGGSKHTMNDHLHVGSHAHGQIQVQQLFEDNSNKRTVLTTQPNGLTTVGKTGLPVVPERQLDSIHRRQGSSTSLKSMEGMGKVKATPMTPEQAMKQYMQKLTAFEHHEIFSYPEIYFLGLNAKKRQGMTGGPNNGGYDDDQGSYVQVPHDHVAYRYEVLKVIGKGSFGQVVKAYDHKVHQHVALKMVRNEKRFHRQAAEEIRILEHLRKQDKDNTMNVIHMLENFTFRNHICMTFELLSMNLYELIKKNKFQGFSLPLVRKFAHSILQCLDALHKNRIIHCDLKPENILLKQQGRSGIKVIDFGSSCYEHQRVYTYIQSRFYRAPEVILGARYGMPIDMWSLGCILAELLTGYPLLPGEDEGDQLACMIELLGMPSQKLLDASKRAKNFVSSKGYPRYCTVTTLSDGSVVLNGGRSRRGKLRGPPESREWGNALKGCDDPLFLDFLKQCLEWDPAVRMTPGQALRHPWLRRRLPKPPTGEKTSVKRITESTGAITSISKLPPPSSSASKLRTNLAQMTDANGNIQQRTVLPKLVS
Protocol: as §1, §2, §3

[4] = molecular target: T4, CLK4 (h) (Homo sapiens, UniProt Q9HAZ1); assay: CLK4 KinaseProfiler radiometric protein kinase assay; conditions: 15 μM ATP, 40 minutes at room temperature
T4 construct: purchased Merck Millipore (KinaseProfiler service)
Protocol: as §1, §2, §3
CLK4 (h) was diluted in the buffer (20 mM MOPS, 1 mM EDTA, 0.01% Brij-35, 5% Glycerol, 0.1% β-mercaptoethanol, 1 mg/mL BSAs) to the concentration of 1.01 mg/mL prior to addition to the reaction mix.
as §4, with “CLK4(h)” for “CLK2(h)”, “200” for “20”, “140.8” for “2.1”

[5] = molecular target: T5, HIPK2(h) (Homo sapiens, UniProt Q9H2X6); assay: HIPK2 KinaseProfiler radiometric protein kinase assay; conditions: 10 μM ATP, 40 minutes at room temperature
T5 construct: purchased Merck Millipore (KinaseProfiler service)
Protocol: as §1, §2, §3
HIPK2(h) was diluted in the buffer (20 mM MOPS, 1 mM EDTA, 0.01% Brij-35, 5% Glycerol, 0.1% β-mercaptoethanol, 1 mg/mL BSAs) to the concentration of 1.01 mg/mL prior to addition to the reaction mix.
as §5, with “HIPK2(h)” for “HIPK1(h)”, “1.4” for “4.7”, “10” for “45”

[6] = radiometric, 15 μM ATP, 40 minutes at room temperature, read-out: CLK2 IC50

T4 sequence (Q9HAZ1 whole entry): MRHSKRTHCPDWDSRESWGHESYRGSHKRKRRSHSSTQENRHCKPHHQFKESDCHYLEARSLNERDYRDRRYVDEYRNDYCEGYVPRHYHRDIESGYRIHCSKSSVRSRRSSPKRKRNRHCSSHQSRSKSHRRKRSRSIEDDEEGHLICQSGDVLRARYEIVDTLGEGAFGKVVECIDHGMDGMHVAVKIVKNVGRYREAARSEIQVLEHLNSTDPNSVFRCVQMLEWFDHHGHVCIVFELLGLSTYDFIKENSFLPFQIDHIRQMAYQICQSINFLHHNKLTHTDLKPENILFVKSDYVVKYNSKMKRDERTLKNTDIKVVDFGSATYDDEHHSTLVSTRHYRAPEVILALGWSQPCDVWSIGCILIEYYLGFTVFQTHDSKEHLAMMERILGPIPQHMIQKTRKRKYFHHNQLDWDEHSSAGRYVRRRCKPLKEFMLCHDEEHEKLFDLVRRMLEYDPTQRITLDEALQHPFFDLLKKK
T2 sequence (Q86Z02 whole entry): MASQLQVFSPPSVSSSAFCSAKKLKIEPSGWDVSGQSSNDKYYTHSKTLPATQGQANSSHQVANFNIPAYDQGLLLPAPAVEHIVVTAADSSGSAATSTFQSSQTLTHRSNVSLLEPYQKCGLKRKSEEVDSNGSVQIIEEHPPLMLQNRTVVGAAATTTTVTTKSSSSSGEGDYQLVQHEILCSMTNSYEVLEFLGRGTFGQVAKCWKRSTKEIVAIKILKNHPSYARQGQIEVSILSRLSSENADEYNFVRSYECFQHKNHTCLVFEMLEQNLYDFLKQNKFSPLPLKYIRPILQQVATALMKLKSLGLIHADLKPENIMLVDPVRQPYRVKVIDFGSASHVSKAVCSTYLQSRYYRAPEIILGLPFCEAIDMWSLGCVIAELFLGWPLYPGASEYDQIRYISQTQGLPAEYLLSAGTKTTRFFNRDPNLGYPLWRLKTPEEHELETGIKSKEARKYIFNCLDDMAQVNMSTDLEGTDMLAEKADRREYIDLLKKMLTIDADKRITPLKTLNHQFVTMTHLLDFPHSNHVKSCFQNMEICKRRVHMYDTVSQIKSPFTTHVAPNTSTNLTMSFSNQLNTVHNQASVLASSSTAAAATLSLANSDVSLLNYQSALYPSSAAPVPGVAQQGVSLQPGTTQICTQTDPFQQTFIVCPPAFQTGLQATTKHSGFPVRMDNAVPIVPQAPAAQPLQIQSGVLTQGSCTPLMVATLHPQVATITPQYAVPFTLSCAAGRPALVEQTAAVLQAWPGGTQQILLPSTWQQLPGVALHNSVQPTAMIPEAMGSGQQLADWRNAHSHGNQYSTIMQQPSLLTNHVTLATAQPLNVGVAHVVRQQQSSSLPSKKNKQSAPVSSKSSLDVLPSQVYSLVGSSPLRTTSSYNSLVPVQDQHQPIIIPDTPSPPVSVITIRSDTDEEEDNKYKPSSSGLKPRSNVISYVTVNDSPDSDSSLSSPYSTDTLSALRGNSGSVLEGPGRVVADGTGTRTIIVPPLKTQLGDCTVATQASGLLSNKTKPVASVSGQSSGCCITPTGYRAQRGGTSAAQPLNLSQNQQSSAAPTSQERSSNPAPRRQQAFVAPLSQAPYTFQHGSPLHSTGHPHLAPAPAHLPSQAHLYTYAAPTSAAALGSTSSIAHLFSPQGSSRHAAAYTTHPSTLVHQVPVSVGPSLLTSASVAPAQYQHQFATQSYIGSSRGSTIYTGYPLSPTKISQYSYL
T1 sequence (P49760 whole entry): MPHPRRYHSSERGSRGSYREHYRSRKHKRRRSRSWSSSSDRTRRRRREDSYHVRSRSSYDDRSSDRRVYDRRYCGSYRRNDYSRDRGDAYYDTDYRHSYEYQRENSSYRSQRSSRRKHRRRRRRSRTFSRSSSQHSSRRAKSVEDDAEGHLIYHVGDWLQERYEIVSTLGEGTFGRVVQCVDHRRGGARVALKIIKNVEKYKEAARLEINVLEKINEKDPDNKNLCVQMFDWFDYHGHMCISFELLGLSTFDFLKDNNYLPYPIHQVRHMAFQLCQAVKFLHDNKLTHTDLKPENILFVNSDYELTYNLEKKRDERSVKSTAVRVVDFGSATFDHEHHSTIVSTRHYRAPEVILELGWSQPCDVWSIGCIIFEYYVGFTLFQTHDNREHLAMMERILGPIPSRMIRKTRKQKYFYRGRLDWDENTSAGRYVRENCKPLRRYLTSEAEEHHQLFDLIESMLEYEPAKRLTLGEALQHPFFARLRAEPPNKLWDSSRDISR
T5 sequence (Q9H2X6 whole entry): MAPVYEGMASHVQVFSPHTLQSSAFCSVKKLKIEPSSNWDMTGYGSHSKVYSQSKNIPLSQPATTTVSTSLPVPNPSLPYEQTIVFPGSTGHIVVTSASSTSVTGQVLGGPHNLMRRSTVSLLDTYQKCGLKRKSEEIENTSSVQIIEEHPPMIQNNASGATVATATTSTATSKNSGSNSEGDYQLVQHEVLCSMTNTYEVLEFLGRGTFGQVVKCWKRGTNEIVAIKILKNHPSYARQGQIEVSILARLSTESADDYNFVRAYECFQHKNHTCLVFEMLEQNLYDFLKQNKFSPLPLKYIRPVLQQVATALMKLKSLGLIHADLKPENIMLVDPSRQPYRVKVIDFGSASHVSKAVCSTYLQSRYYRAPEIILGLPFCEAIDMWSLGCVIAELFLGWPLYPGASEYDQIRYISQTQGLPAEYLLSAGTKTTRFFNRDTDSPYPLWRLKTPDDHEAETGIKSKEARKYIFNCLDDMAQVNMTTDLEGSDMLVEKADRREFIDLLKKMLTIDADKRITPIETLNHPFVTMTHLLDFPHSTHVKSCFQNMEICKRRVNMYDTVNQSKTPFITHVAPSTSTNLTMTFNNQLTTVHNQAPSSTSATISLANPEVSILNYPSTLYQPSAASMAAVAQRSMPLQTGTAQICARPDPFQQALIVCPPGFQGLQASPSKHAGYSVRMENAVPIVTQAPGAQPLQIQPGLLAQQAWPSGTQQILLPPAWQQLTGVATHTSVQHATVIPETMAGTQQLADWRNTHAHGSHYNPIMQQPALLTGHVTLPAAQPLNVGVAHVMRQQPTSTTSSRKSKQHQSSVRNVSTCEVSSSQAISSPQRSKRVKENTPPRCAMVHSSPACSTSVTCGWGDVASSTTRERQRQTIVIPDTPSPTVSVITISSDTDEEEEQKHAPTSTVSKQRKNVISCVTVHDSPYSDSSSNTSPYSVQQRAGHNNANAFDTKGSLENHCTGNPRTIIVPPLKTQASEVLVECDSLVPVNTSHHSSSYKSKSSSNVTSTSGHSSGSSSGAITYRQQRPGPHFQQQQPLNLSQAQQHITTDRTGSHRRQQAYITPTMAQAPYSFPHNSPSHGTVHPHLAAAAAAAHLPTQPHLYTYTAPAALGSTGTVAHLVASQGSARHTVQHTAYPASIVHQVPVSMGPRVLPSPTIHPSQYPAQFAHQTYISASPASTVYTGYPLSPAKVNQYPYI

| Structure (SMILES) | IC50 [1, 6] [nM] | IC50 [2] [nM] | IC50 [3] [nM] | IC50 [4] [nM] | IC50 [5] [nM] | IC50 [1] [nM] |
| --- | --- | --- | --- | --- | --- | --- |
| Cn1cc(-c2ccc3occ(-c4cccc(C(C)(C)C)c4)c3n2)cn1 [Preparative Example 74] | < 1000 | < 5000 |  |  |  |  |
| Cn1cc(-c2ccc3occ(-c4ccc(-c5nnn[nH]5)cc4)c3n2)cn1 [Preparative Example 81] | < 5000 | < 5000 | < 5000 |  |  |  |
| CCc1coc2ccc(-c3cnn(C)c3)nc12 [Preparative Example 23] | < 1000 |  | < 5000 | < 1000 |  |  |
| Cn1cc(-c2ccc3occ(-c4ccc(CO)cc4)c3n2)cn1 [Preparative Example 70] | < 1000 | < 1000 | < 5000 |  |  |  |
| Cn1cc(-c2ccc3occc3n2)cn1 [Preparative Example 12B] | < 5000 |  |  | < 1000 |  |  |
| Cn1cc(-c2ccc3occ(-c4ccc([S+](C)[O-])cc4)c3n2)cn1 (stereo not drawn) [Preparative Example 73] | < 5000 |  | < 5000 |  |  |  |
| Cn1cc(-c2ccc3occ(-c4ccc(C(N)=O)cc4)c3n2)cn1 [Preparative Example 66] | < 1000 | < 1000 | < 5000 |  |  |  |
| CC(C)(C)c1coc2ccc(-c3cn[nH]c3)nc12 [Preparative Example 55] | < 1000 |  |  | < 1000 |  |  |
| Cc1cc2occ(-c3ccc4ccccc4c3)c2nc1-c1cnn(C)c1 [Preparative Example 80] | < 1000 |  |  |  |  |  |
| Cn1cc(-c2ccc3occ(-c4ccc5cn[nH]c5c4)c3n2)cn1 [Preparative Example 65] | < 100 | < 1000 | < 1000 |  |  |  |
| c1ccc2cc(-c3coc4ccc(-c5cnoc5)nc34)ccc2c1 [Preparative Example 62] | < 5000 | < 1000 |  | < 5000 | < 1000 |  |
| c1ccc(-c2coc3ccc(-c4cccnc4)nc23)cc1 [Preparative Example 6D] | < 5000 | < 5000 |  | < 1000 | < 5000 |  |
| CC(C)(C)c1ccc(-c2coc3ccc(-c4cn[nH]c4)nc23)cc1 [Preparative Example 54] |  | < 1000 |  | < 5000 | < 1000 | < 5000 |
| Cn1cc(-c2ccc3occ(-c4ccc(S(C)(=O)=O)cc4)c3n2)cn1 [Preparative Example 71] | < 1000 | < 5000 | < 5000 |  |  |  |
| CC(C)n1cc(-c2ccc3occ(-c4ccc5ccccc5c4)c3n2)cn1 [Preparative Example 7C] | < 5000 |  |  | < 5000 | < 5000 |  |
| c1ccc2cc(-c3coc4ccc(-c5cncs5)nc34)ccc2c1 [Preparative Example 7F] | < 1000 | < 1000 |  | < 1000 | < 100 |  |
| Cn1cc(-c2ccc3occ(-c4cccc(-c5ccccc5)c4)c3n2)cn1 [Preparative Example 61] | < 100 | < 1000 | < 5000 | < 100 | < 100 |  |
